Data reported in patent publication US7238718B2, “Method for treating myolytic disease and method for screening antimyolytic agent” (Osaka Bioscience Institute, priority 2003, dated 2007).

Tests used:
[1] = tested on: myolysis induced by bupivacaine hydrochloride in gastrocnemius; experiment: Quantification of myolysis region by Evans' Blue extraction and absorbance (630 nm); assay type: in vivo, C57BL/6 mice
Procedure: Quantification of the degenerated region by necrosis shown in Example 1 was carried out. Evans' Blue was extracted from the freeze-dried gastrocnemius by formamide. After the extraction, absorbance of Evans' Blue (630 nm) was measured calorimetrically.

[2] = tested on: myolysis induced by bupivacaine hydrochloride in gastrocnemius; experiment: Nonoperative observation of necrotic lesion using X-ray CT with iopamidol; assay type: in vivo, mice; settings: one day after bupivacaine hydrochloride; 15 min after iopamidol i.v.; FIG. 3
Procedure: Degenerated region was observed by a nonoperative manner using X-ray CT for experimental animals. N,N′-Bis[2-hydroxy-1-(hydroxymethyl)ethyl]-5-[(2S)-2-hydroxypropanoylamino]-2,4,6-triiodoisophthalamide (iopamidol), an X-ray contrast agent for urinary blood vessels, was intravenously injected from tail vein of mice after one day from the treatment with bupivacaine hydrochloride and a laminogram by an X-ray CT after 15 minutes is shown. A region with specific CT values which is noted in the laminogram of gastrocnemius decreased by administration of HQL-79. In the region where retention of the contrast agent is recognized, bleeding and edema as a result of muscular destruction are noted (refer to FIG. 3).

[3] = tested on: myolysis induced by bupivacaine hydrochloride in gastrocnemius; experiment: Myolysis model induced by bupivacaine hydrochloride, Evans' Blue fluorescence microscopy of gastrocnemius; assay type: in vivo, C57BL/6 mice; settings: 10 mg/kg orally; 24 h after bupivacaine hydrochloride 0.5 w/v %, 0.1 ml; FIG. 1
Procedure: Effect of an H-PGDS inhibitor to myolysis was tested using a myolysis model induced by bupivacaine hydrochloride which is an experimental model for muscular dystrophy (Nonaka I, et al., Acta Neuropathol., 60:167–174, 1983). Bupivacaine hydrochloride (0.5 w/v %, 0.1 ml) was injected into gastrocnemius of C57BL/6 mice (K. K. Oriental Bio Service) (eight weeks old; male) to induce myolysis and, after 24 hours, Evans' Blue dye solution (1.0 w/v %) was intravenously injected from tail vein. After 30 minutes, they were killed by excessive anesthetization and perfused with physiological saline solution, gastrocnemius was excised and quickly frozen. The cryosection was prepared and then accumulated Evans' Blue was observed under a fluorescent microscope. Necrotic legion was enhanced by means of fluorescence.

[4] = tested on: myolysis in mdx mice; experiment: Therapeutic effect in mdx mice (Duchenne's muscular dystrophy model), Evans' Blue retention; assay type: in vivo; settings: continuously administered for two weeks; compared with vehicle group; FIG. 5
Procedure: HQL-79 was continuously administered for two weeks to mdx mice which is a model animal for Duchenne's muscular dystrophy (Bogdanovich S, et al., Nature, Nov. 28, 2002, 420(6914):418–21) […] and the effect of the HPGDS inhibitor to myolysis was tested. After two weeks from the initiation of the administration, an Evans' Blue dye solution (1.0 w/v %) was intravenously injected from tail vein. After one hour therefrom, the mice were killed by excessive anaesthetization and perfused with physiological saline solution, the gastrocnemius was excised and quickly frozen. The retention of Evans' Blue in the muscle was observed under a fluorescent microscope. Necrotic lesion was enhanced by means of fluorescence. In the mice to which HQL-79 was administered, retention of the dye (grayish white region) which is an index for myolysis decreased as compared with the group to which a vehicle was administered (refer to FIG. 5).

| Compound | amount of Evans' Blue impregnated into the tissue (absorbance 630 nm) ([1]; 30 mg/kg orally, 1 h before and 18 h after bupivacaine hydrochloride 1 w/v %, 0.05 mL, read at 24 h, FIG. 6) | incorporation of Evans' Blue into gastrocnemius (absorbance 630 nm) ([1]; HQL-79 group of Example 1, formamide extraction, FIG. 2) | region with specific CT values in laminogram of gastrocnemius [2] | degenerated region by necrosis (Evans' Blue fluorescence) [3] | retention of Evans' Blue dye in muscle (index for myolysis) [4] |
| --- | --- | --- | --- | --- | --- |
| O=C(O)CCn1c2c(c3ccccc31)C[C@H](NS(=O)(=O)c1ccc(F)cc1)CC2 [ramatroban, (+)-(3R)-3-(4-fluorobenzenesulfonamide)-1,2,3,4-tetrahydrocarbazole-9-propionic acid] | lowered | – | – | – | – |
| c1ccc(C(OC2CCN(CCCc3nnn[nH]3)CC2)c2ccccc2)cc1 [HQL-79, 4-benzhydryloxy-1-{3-(1H-tetrazol-5-yl)-propyl}piperidine] | – | significantly decreased | decreased | degenerated region by necrosis became small | decreased |
